Test results from patent US6497904B2, “Treatment of oncologic tumors with an injectable formulation of a golgi apparatus disturbing agent” (priority 1998, dated 2002).

Experiments:
Balb/C mice = test: Survival of Balb/C mice following treatment (deaths due to toxicity); format: in vivo; conditions: Example 3
Description: Balb/C mice are divided into groups and given treatments according to Table 3. Mice are observed daily for 25 days for deaths due to toxicity.
Balb/C mice are divided into groups and given treatments according to Table 7.

Erlich tumors = test: In vivo efficacy (delay in tumor growth, T/C) in Balb/C mice carrying Erlich tumors
Experimental: For each of the following examples, the pharmaceutical formulations were prepared just prior to use. Various amounts of brefeldin A (mg of drug/kg animal's body weight) were weighed out and varying amounts of solvent was used to mix the drug. The mixtures were either vortexed (mechanical mixing) or sonicated until drug was either completely soluble or only a very small amount appeared to settle in the bottom the test tube. Chitin was then added and the mixture was sonicated.
Six days following inoculation, the mice normally grew a tumor on each flank, ranging in size from 100 to 120 mm^3. The mice (average weight=25 g) were randomized and separated into groups. Each tumor was then measured and the tumor volume calculated and recorded. In experimental groups, one tumor on each mouse was treated with the appropriate agent (drug versus drug in formulation) with an injection volume of 50 ul using a 22G½ needle. The control group was left untreated.
Antitumor activity was determined by inhibition of tumor growth and survival rate. Each tumor was measured two to three times per week. In nude mice, tumors were measured for 10 days or until mice survived. In Balb/C tumors were measured for up to 20 days following treatment. The volume of the tumor was calculated and recorded. Tumor volume data is analyzed by using simple regression model. […]
Balb/C mice are divided into groups and given treatments according to Table 4. Mice are observed daily to evaluate lethal toxicity and tumors are measured on alternate days for 20 days. […]

SMILES: C[C@H]1CCC/C=C/[C@@H]2C[C@H](O)C[C@H]2[C@H](O)/C=C/C(=O)O1 [brefeldin A]
- toxicity to mice (Balb/C mice; high doses (80 mg/kg and 40 mg/kg) with DMA, groups 4 and 8): most toxic
- toxicity to mice (Balb/C mice; when chitin is added to the formulation (with DMA)): less toxicity
- T/C ratio of delay in tumor growth (Erlich tumors; Example 2, groups 5, 6, and 7, given with the solvent (DMA 5-20 μl), no chitin): 1.25-1.75
- T/C ratio of delay in tumor growth (Erlich tumors; Example 2, groups 8, 9, and 10, delivered with DMA (5-20 μl) and chitin): 2.00-2.75
- T/C ratio of delay in tumor growth (Erlich tumors; Example 4, groups 4, 5, and 6, BFA 2 mg delivered with DMA and chitin): 2.50-2.85
- T/C ratio of delay in tumor growth (Erlich tumors; Example 4, groups 7, 8, and 9, decreased dose of brefeldin A (0.5 mg) with DMA and chitin): 2.30-2.55
